Key:
[1] = system: OVX rats; test: Bone formation marker serum P1NP in OVX rats; assay type: in vivo, Sprague–Dawley rats (female); settings: once daily s.c., day 28, vs OVX, n = 8 or 9
Source text: (§1) Ten-week-old female Sprague–Dawley rats were purchased from Charles River Laboratories Japan, Inc. (Kanagawa, Japan) and ovariectomized at 12 weeks old. Thirty-five days after surgery, rats received once daily subcutaneous injection of ABL, TPTD, or vehicle (saline containing 0.1% heat-inactivated rat serum) for 28 days. Day 0 indicates the day when administration was started. On day 26, rats were anesthetized with intraperitoneally administered pentobarbital sodium and the lumbar spine (L4 and L5) BMD was measured with a PIXImus2 (GE Healthcare, Chicago, IL). Blood (collected from the tail vein) and urine samples were obtained on day 28. Prior to collection, rats were fasted for 15–17 h. Rats were euthanized after the blood and urine collection, and the lumbar spine was removed for the measurement of bone strength. All experimental procedures were approved by the Animal Care and Use Committee of Teijin Institute for Bio-Medical Research.
Serum P1NP concentration was measured with a Rat/Mouse PINP EIA kit (Immunodiagnostic Systems, Boldon, UK). Urine DPD concentration was measured with an Osteolinks DPD kit (Quidel, San Diego, CA, USA). Urine creatinine (Cr) concentration was measured with a 7180 Autoanalyzer (Hitachi High-Technologies Corporation, Tokyo, Japan).

[2] = system: SaOS-2; test: Bone formation-related factor gene expression (qRT-PCR); assay type: cell-based, human; settings: for IGF-1 gene expression / osteocalcin gene expression: 100 nmol/L once daily 11 days, 6-h exposure per 24-h cycle (Fig. 3b), n = 3; for IGF-1 and osteocalcin expression, continuous treatment: data not shown
Procedure: SaOS-2 was cultured in 12-well plates at a density of 2 × 10^5 cells/well in DM. Concomitant with the initiation of cell differentiation, cells were treated with 100 nmol/L of ABL and TPTD once daily for 11 days. The peptide exposure was limited to the first 6 h of the 24-h incubation cycle, and the medium was replaced with peptide-free medium for the rest of the cycle after washing with PBS twice.
(§2) Cells were lysed and total RNA was extracted using an RNeasy Mini Kit (Qiagen, Valencia, CA, USA). RNA was reverse-transcribed into cDNA using the SuperScript III First-Strand Synthesis System for RT-PCR (Invitrogen, Carlsbad, CA, USA). Quantitative RT-PCR was performed on a 7500 Real-Time PCR System (Applied Biosystems) using Power SYBR Green PCR Master Mix (Thermo Fisher Scientific, Waltham, MA, USA). The primers used in this study were as follows: 5′-CGATGGTGGATGGCTCATG-3′ (forward) and 5′-ACCAGATGGGATGTCGGTG-3′ (reverse) for RANKL, 5′-[…]-3′ (forward) and 5′-[…]-3′ (reverse) for M-CSF, 5′-[…]-3′ (forward) and 5′-[…]-3′ (reverse) for OPG, 5′-[…]-3′ (forward) and 5′-[…]-3′ (reverse) for IGF1, 5′-[…]-3′ (forward) and 5′-[…]-3′ (reverse) for osteocalcin, 5′-[…]-3′ (forward) and 5′-[…]-3′ (reverse) for DMP1, 5′-[…]-3′ (forward) and 5′-[…]-3′ (reverse) for SOST, 5′-[…]-3′ (forward) and 5′-[…]-3′ (reverse) for DKK1, 5′-GTGAAGGTCGGAGTCAACG-3′ (forward) and 5′-TGAGGTCAATGAAGGGGTC-3′ (reverse) for GAPDH.

[3] = system: rat osteoblastic cell line UMR-106; test: cAMP accumulation assay in UMR-106; assay type: cell-based; settings: for cAMP accumulation, in words: UMR-106, 10 min (Fig. 1b), n = 3 replicate wells; for EC50 / Emax, cAMP accumulation: UMR-106, 10 min, 2 mmol/L 3-isobutyl-1-methylxanthine, mean ± s.e.m., three independent experiments, each triplicate; for EC50: P = 0.0067 ABL vs TPTD; for Emax, cAMP accumulation: P = 0.84 ABL vs TPTD
Procedure: (§3) The human osteoblastic cell line SaOS-2 and the rat osteoblastic cell line UMR-106 were purchased from the European Collection of Cell Cultures (Wiltshire, UK). SaOS-2 and UMR-106 were maintained in growth medium (GM): McCoy’s 5A (for SaOS-2) or Dulbecco’s Modified Eagle’s Medium (for UMR-106) supplemented with 10% FBS and 1% penicillin/streptomycin at 37 °C with 5% CO2. To initiate cell differentiation, cells were grown in differentiation medium (DM): GM containing 50 µg/mL ascorbic acid, 10 mmol/L β-glycerophosphate, and 10 nmol/L dexamethasone. The culture medium was exchanged every 6 days or less.
(§4) Cells were cultured in 96-well plates at a density of 4 × 10^4 cells/well in GM overnight. The medium was replaced with serum-free GM (containing 0.1% BSA instead of 10% FBS) for culture under starvation conditions. Twenty-four hours after the start of starvation, ABL, TPTD, or vehicle (water containing 0.1% BSA) were added to the cells with 2 mmol/L of 3-isobutyl-1-methylxanthine for 10 min. Cells were lysed and accumulated cAMP was measured using the cAMP-Screen System (Applied Biosystems, Waltham, MA, USA) according to the manufacturer’s instructions.
(§5) All data are expressed as means ± s.e.m. For calculation of EC50 and Emax, 4-parameter logistic curve fitting was performed. Student’s t test was used for two-group comparisons. Dunnett’s or Tukey’s test was used for multiple comparisons. Significance was inferred from P values of < 0.05. All data were analyzed using GraphPad Prism version 6.03 (GraphPad Software, La Jolla, CA, USA).

[4] = system: human osteoblastic cell line SaOS-2; test: cAMP accumulation assay in SaOS-2; assay type: cell-based; settings: for cAMP accumulation, in words: SaOS-2, 10 min (Fig. 1a), n = 3 replicate wells; for EC50 / Emax, cAMP accumulation: SaOS-2, 10 min, 2 mmol/L 3-isobutyl-1-methylxanthine, mean ± s.e.m., three independent experiments, each triplicate; for EC50: cAMP-Screen System, P = 0.13 ABL vs TPTD; for Emax, cAMP accumulation: P = 0.96 ABL vs TPTD
Procedure: as §3, §4, §5

[5] = system: SaOS-2; test: Bone resorption-related factor gene expression (qRT-PCR); assay type: cell-based, human; settings: 100 nmol/L; for M-CSF mRNA expression / OPG mRNA expression / RANKL mRNA expression / RANKL/OPG mRNA expression: continuous treatment (Fig. 2b); for expression of bone resorption-related factors such as RANKL/OPG and M-CSF: human osteoblastic cells
Procedure: SaOS-2 was cultured in 48-well plates at a density of 5 × 10^4 cells/well in DM for 10 days. The medium was replaced with serum-free DM for culture under starvation conditions. Twenty-four hours after the start of starvation, cells were treated with ABL and TPTD at a concentration of 100 nmol/L. Six hours after treatment, cells were washed with PBS twice, and cultured with peptide-free or peptide-containing medium for the rest of the experimental period.
as §2

[6] = system: OVX rats; test: L4 vertebral bone strength in OVX rats; assay type: in vivo, Sprague–Dawley rats (female); settings: once daily s.c. for 28 days, day 28, vs OVX, n = 8 or 9
Source text: as §1
L4 was isolated from the lumbar spine. The height of the vertebral body was measured with a vernier caliper. To obtain vertebral body specimens, the cranial and caudal ends of the vertebral body were cut with a diamond saw to a height of 4 mm. Bone strength was measured with a MZ-500S (MARUTO Testing Machine Company, Tokyo, Japan).

Substance	serum P1NP [1]	IGF-1 gene expression [2]	osteocalcin gene expression [2]	IGF-1 and osteocalcin expression, continuous treatment [2]	cAMP accumulation, in words [3]	EC50 [3]	Emax, cAMP accumulation [3]	cAMP accumulation, in words [4]	EC50 [4]	Emax, cAMP accumulation [4]	M-CSF mRNA expression ([5]; n = 3)	OPG mRNA expression ([5]; n = 3)	RANKL mRNA expression ([5]; n = 3)	RANKL/OPG mRNA expression ([5]; n = 3)	expression of bone resorption-related factors such as RANKL/OPG and M-CSF [5]	lumbar spine (L4) bone strength [6]	also measured
[Glu^22,25, Leu^23,28,31, Aib^29, Lys^26,30] human PTHrP(1–34)–NH2 [Abaloparatide]	significantly increased	increased	increased	could hardly detect	dose-dependently increased cAMP	0.84 ± 0.03 nM	278.4 ± 20.8 nmol/L	dose-dependently increased cAMP	5.1 ± 0.4 nM	21.9 ± 1.4 nmol/L	similarly promoted	inhibited	similarly promoted	similarly promoted	increased	significantly increased	IGF-1 and osteocalcin effects, ABL vs TPTD ([2]; 100 nmol/L, repeating 6-h exposure cycle, 11 days (Fig. 3b)): not significantly different; EC50 and Emax of ABL compared with TPTD ([4]; SaOS-2, Table 1): no significant differences; M-CSF expression, ABL vs TPTD ([5]; transient 6-h treatment): less than TPTD; RANKL/OPG expression, ABL vs TPTD ([5]; transient 6-h treatment): less than TPTD; bone resorption-related factors mRNA, ABL vs TPTD ([5]; transient treatment (first 6 h, then washed out) (Fig. 2d), n = 3): significantly attenuated as compared with TPTD
human PTH(1–34) [Teriparatide]	significantly increased	increased	increased	could hardly detect	dose-dependently increased cAMP	1.18 ± 0.06 nM	271.4 ± 25.0 nmol/L	dose-dependently increased cAMP	3.9 ± 0.5 nM	22.0 ± 1.5 nmol/L	similarly promoted	inhibited	similarly promoted	similarly promoted	increased	significantly increased	

From publication PMC6105163, “Abaloparatide Exerts Bone Anabolic Effects with Less Stimulation of Bone Resorption-Related Factors: A Comparison with Teriparatide” (Calcified Tissue International, 2018)
